Read-outs that look alike come from different tables or passages of the source.
Columns and labels:
[1] = system: luminal, basal, claudin-low and ERBB2AMP breast cancer cell lines; assay: Associations of clinically relevant subtypes and response (non-parametric ANOVA or t-test on GI50 ranks); format: cell-based, human; details: Table 6; most sensitive subtype, FDR p<0.20
Method in brief: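 Significance was set at FDR p<0.20 after combining p-values across three test sets. Subtype–response associations came from rank-based non-parametric ANOVA or t-tests on GI50. For three-class comparisons, post-hoc tests of each group against the rest identified the most sensitive group, with FDR correction.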

[2] = system: panel of 55 breast cancer cell lines; assay: Cell growth inhibition assay (Cell Titer Glo, 72 h, 9 doses; GI50, TGI, LC50); format: cell-based, human; details: Homo sapiens, read-out: GI50 (converted)

C#Cc1cccc(Nc2ncnc3cc(OCCOC)c(OCCOC)cc23)c1 [Erlotinib]
Subtype specificity [1]: Basal | GI50 ([2]; AU565, AU565 cell line, censored GI50 values): 13.2 µM | GI50 ([2]; AU565, cell line AU565): 13.2 µM | GI50 ([2]; BT-20, BT20 cell line, censored GI50 values): 2 µM | GI50 ([2]; BT-20, cell line BT20): 2 µM | GI50 ([2]; BT-474, BT474 cell line, censored GI50 values): 10.5 µM | GI50 ([2]; BT-474, cell line BT474): 10.5 µM | GI50 ([2]; BT-483, cell line BT483): 66.1 µM | GI50 ([2]; BT-549, BT549 cell line, censored GI50 values): 41.7 µM | GI50 ([2]; BT-549, cell line BT549): 41.7 µM | GI50 ([2]; CAMA-1, cell line CAMA1): 66.1 µM | GI50 ([2]; HCC38, cell line HCC38): 66.1 µM | GI50 ([2]; HCC70, HCC70 cell line, censored GI50 values): 1.74 µM | GI50 ([2]; HCC70, cell line HCC70): 1.74 µM | GI50 ([2]; HCC202, HCC202 cell line, censored GI50 values): 37.2 µM | GI50 ([2]; HCC202, cell line HCC202): 37.2 µM | GI50 ([2]; HCC1143, cell line HCC1143): 57.5 µM | GI50 ([2]; HCC1187, HCC1187 cell line, censored GI50 values): 7.59 µM | GI50 ([2]; HCC1187, cell line HCC1187): 7.59 µM | GI50 ([2]; HCC1395, HCC1395 cell line, censored GI50 values): 39.8 µM | GI50 ([2]; HCC1395, cell line HCC1395): 39.8 µM | GI50 ([2]; HCC1419, HCC1419 cell line, censored GI50 values): 10.7 µM | GI50 ([2]; HCC1419, cell line HCC1419): 10.7 µM | GI50 ([2]; HCC1428, HCC1428 cell line, censored GI50 values): 17.8 µM | GI50 ([2]; HCC1428, cell line HCC1428): 17.8 µM | GI50 ([2]; HCC1500, HCC1500 cell line, censored GI50 values): 6.46 µM | GI50 ([2]; HCC1500, cell line HCC1500): 6.46 µM | GI50 ([2]; HCC1806, HCC1806 cell line, censored GI50 values): 4.27 µM | GI50 ([2]; HCC1806, cell line HCC1806): 4.27 µM | GI50 ([2]; HCC1937, HCC1937 cell line, censored GI50 values): 38.9 µM | GI50 ([2]; HCC1937, cell line HCC1937): 38.9 µM | GI50 ([2]; HCC1954, HCC1954 cell line, censored GI50 values): 3.09 µM | GI50 ([2]; HCC1954, cell line HCC1954): 3.09 µM | GI50 ([2]; HCC2185 cell line, censored GI50 values): 23.4 µM | GI50 ([2]; HCC3153 cell line, censored GI50 values): 31.6 µM | GI50 ([2]; LY2 cell line, censored GI50 values): 33.1 µM | GI50 ([2]; MCF7, cell line MCF7): 66.1 µM | GI50 ([2]; MDA-MB-157, cell line MDAMB157): 50.1 µM | GI50 ([2]; MDA-MB-175-VII, MDAMB175VII cell line, censored GI50 values): 3.09 µM | GI50 ([2]; MDA-MB-231, MDAMB231 cell line, censored GI50 values): 39.8 µM | GI50 ([2]; MDA-MB-231, cell line MDAMB231): 39.8 µM | GI50 ([2]; MDA-MB-361, cell line MDAMB361): 64.6 µM | GI50 ([2]; MDA-MB-436, cell line MDAMB436): 55 µM | GI50 ([2]; MDA-MB-453, cell line MDAMB453): 44.7 µM | GI50 ([2]; MDA-MB-468, MDAMB468 cell line, censored GI50 values): 21.4 µM | GI50 ([2]; MDA-MB-468, cell line MDAMB468): 21.4 µM | GI50 ([2]; SK-BR-3, SKBR3 cell line, censored GI50 values): 15.8 µM | GI50 ([2]; SK-BR-3, cell line SKBR3): 15.8 µM | GI50 ([2]; SUM52PE, SUM52PE cell line, censored GI50 values): 31.6 µM | GI50 ([2]; SUM52PE, cell line SUM52PE): 31.6 µM | GI50 ([2]; SUM149PT, SUM149PT cell line, censored GI50 values): 2 µM | GI50 ([2]; SUM149PT, cell line SUM149PT): 2 µM | GI50 ([2]; SUM185PE, cell line SUM185PE): 66.1 µM | GI50 ([2]; SUM225CWN, SUM225CWN cell line, censored GI50 values): 7.08 µM | GI50 ([2]; SUM225CWN, cell line SUM225CWN): 7.08 µM | GI50 ([2]; SUM1315MO2, SUM1315MO2 cell line, censored GI50 values): 7.41 µM | GI50 ([2]; SUM-159-PT, SUM159PT cell line, censored GI50 values): 11.7 µM | GI50 ([2]; SUM-159-PT, cell line SUM159PT): 11.7 µM | GI50 ([2]; T47D, cell line T47D): 50.1 µM | GI50 ([2]; UACC-812, UACC812 cell line, censored GI50 values): 12.3 µM | GI50 ([2]; UACC-812, cell line UACC812): 12.3 µM | GI50 ([2]; UACC-893, UACC893 cell line, censored GI50 values): 12.3 µM | GI50 ([2]; UACC-893, cell line UACC893): 12.3 µM | GI50 ([2]; ZR-75-1, cell line ZR751): 66.1 µM | GI50 ([2]; ZR-75B, cell line ZR75B): 66.1 µM | GI50 ([2]; cell line 600MPE): 52.5 µM | GI50 ([2]; cell line HCC2185): 23.4 µM | GI50 ([2]; cell line HCC3153): 31.6 µM | GI50 ([2]; cell line LY2): 33.1 µM | GI50 ([2]; cell line MDAMB134V): 66.1 µM | GI50 ([2]; cell line MDAMB175V): 3.09 µM | GI50 ([2]; cell line SUM1315MO): 7.41 µM

— patent US10770169B2, “Method of providing a treatment to a subject based on a dynamic pathway map” (THE REGENTS OF THE UNIVERSITY OF CALIFORNIA, priority 2010, dated 2020)
